Tests used:
[1] = species: Rattus norvegicus; assay: In vitro ability to stimulate insulin was determined at (5 mM glucose+0.1 uM compound); format: functional
[2] = biological target: T1, ATP-binding cassette sub-family C member 8 (Homo sapiens, UniProt Q09428); assay: Displacement of [3H]glibenclamide from COS-1 cells expressing Sulfonylurea receptor 1 (SUR-1); format: cell-based
[3] = species: Rattus norvegicus; assay: Percent stimulation index to stimulate insulin was determined; format: functional
[4] = species: Rattus norvegicus; assay: Percent relative stimulation index to stimulate insulin was determined; format: functional
[5] = species: Rattus norvegicus; assay: In vitro ability to stimulate insulin was determined at (15 mM glucose); format: functional
[6] = biological target: T1, ATP-binding cassette sub-family C member 8; assay: In vitro displacement of [3H]glibenclamide (IC50=0.61) from COS-1 cells expressing Sulfonylurea receptor 1 (SUR-1); format: cell-based

T1 sequence (Q09428 whole entry): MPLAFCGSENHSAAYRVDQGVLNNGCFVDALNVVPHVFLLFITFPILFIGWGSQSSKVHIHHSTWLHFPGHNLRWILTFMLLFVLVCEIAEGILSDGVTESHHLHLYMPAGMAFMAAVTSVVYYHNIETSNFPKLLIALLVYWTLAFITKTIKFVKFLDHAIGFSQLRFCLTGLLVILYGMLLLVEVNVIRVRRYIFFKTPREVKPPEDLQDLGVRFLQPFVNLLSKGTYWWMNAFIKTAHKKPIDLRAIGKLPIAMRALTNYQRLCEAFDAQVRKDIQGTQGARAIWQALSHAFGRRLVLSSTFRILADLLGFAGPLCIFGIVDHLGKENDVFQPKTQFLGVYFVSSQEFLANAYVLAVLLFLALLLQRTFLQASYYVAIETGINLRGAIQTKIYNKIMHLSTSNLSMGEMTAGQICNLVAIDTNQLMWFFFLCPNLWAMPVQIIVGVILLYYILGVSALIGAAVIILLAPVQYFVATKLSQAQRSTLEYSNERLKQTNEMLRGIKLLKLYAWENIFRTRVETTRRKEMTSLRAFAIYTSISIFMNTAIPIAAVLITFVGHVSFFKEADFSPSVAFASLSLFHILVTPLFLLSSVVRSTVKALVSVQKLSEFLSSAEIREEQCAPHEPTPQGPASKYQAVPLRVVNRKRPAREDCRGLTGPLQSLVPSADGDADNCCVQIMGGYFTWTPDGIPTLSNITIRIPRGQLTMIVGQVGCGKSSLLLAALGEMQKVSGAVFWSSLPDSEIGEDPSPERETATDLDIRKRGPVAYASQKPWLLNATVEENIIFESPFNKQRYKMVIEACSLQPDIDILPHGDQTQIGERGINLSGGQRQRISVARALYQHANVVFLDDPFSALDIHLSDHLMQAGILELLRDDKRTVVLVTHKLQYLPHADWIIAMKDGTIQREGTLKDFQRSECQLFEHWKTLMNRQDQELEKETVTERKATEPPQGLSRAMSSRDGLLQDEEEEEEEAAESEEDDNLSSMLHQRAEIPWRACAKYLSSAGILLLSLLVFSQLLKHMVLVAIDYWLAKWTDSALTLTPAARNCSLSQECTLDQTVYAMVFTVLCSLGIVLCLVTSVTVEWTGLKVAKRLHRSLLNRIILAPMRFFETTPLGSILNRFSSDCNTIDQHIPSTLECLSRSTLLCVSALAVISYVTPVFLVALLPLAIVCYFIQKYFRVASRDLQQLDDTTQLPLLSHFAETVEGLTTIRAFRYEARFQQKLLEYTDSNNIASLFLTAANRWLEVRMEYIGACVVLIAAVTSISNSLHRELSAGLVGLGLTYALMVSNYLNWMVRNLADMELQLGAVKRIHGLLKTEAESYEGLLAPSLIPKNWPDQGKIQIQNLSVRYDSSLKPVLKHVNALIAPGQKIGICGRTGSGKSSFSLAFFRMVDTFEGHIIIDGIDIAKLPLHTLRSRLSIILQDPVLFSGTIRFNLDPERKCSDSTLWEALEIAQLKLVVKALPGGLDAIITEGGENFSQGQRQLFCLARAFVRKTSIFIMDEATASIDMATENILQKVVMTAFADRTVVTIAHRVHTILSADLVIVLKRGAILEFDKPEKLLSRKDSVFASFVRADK

SMILES	Insulin release [1] [ng/islet/1h]	Kd [2] [nM]	Stimulation index [3] [fold]	Relative stimulation index [4] [%]	Insulin release [5] [ng/islet/1h]	IC50 [6] [nM]
COc1cc(CC(=O)N[C@@H](CC(C)C)c2ccccc2N2CCCCC2)ccc1C(=O)O	2	83	2	64	4	163
CC(C)C[C@H](NC(=O)Cc1ccc(C(=O)O)c(OCCF)c1)c1ccccc1N1CCCCC1	–	134	–	–	–	281
CCOc1cc(CC(=O)N[C@@H](CC(C)C)c2ccccc2N2CCCCC2)ccc1C(=O)O [REPAGLINIDE]	2.1	50	1.9	63	4	106
